# Source: patent US12403114B2, “Cannabinoid acid ester compositions and uses thereof” (EPM (IP), INC., priority 2019, dated 2025)
# How the values were obtained:
# [1] = tested on: partial meniscectomy/ACL transection rat model of surgical induced osteoarthritis and pain induced incapacitance; assay: Weight bearing in rat meniscectomy model versus hyaluronate and corticosteroid, Example 6; assay type: in vivo
# Protocol: Rats were allowed to acclimatize for 1 week, followed by assessment of their weight bearing preference using an incapacitance meter. Unilateral medical meniscectomy and anterior cruciate ligament […] (MMX/ACLT) surgery was performed on the right knee of a subject rat. Weight bearing preference was tested before and after surgery. After 2 weeks, treatments with both intra-articular (1) and. intra-peritoneal (6) administrations of EPM301 began in the EPM301 group. In the hyaluronate (HA) and corticosteroid (CS) groups, a single intra-articular injection was performed 2 weeks after model induction. Weight bearing preference was then assessed 4 and 7 days after the start of therapy.
# Wistar Rats (HsdHan female rats 225-249 grams) were acquired from Envigo. The rats were evaluated using an incapacitance tester. They were tested pre-operation, one-week post-operation, two weeks post-operation, prior to injection, 4 and 7 days post injections.
# EPM-301 was dissolved in a solution mixture of 1:1:18 EtOH:cremophor:seline to a final concentration of 3.5 mg/mL. Hyaluronic acid (Arthrease, 1% sodium hyaluronate) and Dexamethasone (kem Pharma, Venus, 72, Pol. Ind. Colom II, 08228 Terrassa, Barcelona) were acquired.
# Intra-articular (i.a.) injection was carried out with 100 uL and intra-peritoneal (i.p.) injections were carried out with 150 uL. All were injected i.a. in the first day. EPM-301 was injected via i.p. administration on the first day, and for 5 additional days everyday via i.p. administration.
# Student's t-test was performed at the last follow-up time to determine effect of the therapy as primary endpoint. The level of significance was 0.05 alpha. ANOVA was used to compare all time points, a post-hob analysis with the Scheffe all comparisons method was performed. Calculations were performed using the Analyze-it Excel add-on function.
# The percentage of weight bearing was calculated as the amount of weight born (in grams) on the right hind limb divided by the amount of weight born on the left hind limb. This ratio was expressed as percentage weight bearing. Prior to operation the Rt/Lt weight bearing in both groups was similar. There were 4 animals in the EPM-301 treated group and 8 animals in each of the HA and CS treated groups, with a total of 20 tested subjects.
# [2] = tested on: weight gain in rats with an adipogenic diet; assay: Rat model of diet induced obesity (Teklad TD95217 adipogenic diet), weight gain; assay type: in vivo; conditions: 150 uL of 3.5 mg/ml i.p., each animal its own control (FIG. 33)
# Protocol: The study was designed as a N-of-1 study, where each animal served as its own control. The advantage of this model is the elimination of the need for a control group and reduction of […] variation. The study was performed in two phases: a short-term study with one week exposure to EPM-301 and a long-term study with 8 weeks exposure to EPM-301 (injected daily). In the long-term study, a control group was used including animals fed the adipogenic diet.
# EPM-301 was dissolved in 1:1:18 EtOH:cremophor:seline solution to final concentration of 3.5 mg/ml.
# In the short-term experiment, all rats were injected i.p. 150 uL in the first day, and after a 3-day break were then injected i.p. every day for 4 days. In the long-term experiment i.p. injections of 150 uL were carried out daily for 8 weeks. Weight was measured at weeks 0, 1, 3, and 9 after injections.
# The rats were weighed on a digital weight weekly in the short-term study for 3 weeks. The rats were weighed on weeks 0, 1, 3, and 9 in the long-term study.
# Rats were allowed to acclimatize for 1 week, and then their weights were assessed using a digital weighing machine. Animals are fed an adipogenic diet for two weeks before starting injections.
# The weights of the animals were compared at each time point and the change over time calculated. ANOVA was used to determine whether there was a significant change. […]
# [3] = molecular target: T1, glucose transporter 2 (GLUT2) (Homo sapiens, UniProt P11168); assay: 2-NBDG glucose uptake in transfected HEK293t cells; assay type: cell-based; conditions: 50-0.1 μM tested
# T1 construct: expressed in transfected cells; host or cells: HEK293t
# T1 sequence (P11168 1-524): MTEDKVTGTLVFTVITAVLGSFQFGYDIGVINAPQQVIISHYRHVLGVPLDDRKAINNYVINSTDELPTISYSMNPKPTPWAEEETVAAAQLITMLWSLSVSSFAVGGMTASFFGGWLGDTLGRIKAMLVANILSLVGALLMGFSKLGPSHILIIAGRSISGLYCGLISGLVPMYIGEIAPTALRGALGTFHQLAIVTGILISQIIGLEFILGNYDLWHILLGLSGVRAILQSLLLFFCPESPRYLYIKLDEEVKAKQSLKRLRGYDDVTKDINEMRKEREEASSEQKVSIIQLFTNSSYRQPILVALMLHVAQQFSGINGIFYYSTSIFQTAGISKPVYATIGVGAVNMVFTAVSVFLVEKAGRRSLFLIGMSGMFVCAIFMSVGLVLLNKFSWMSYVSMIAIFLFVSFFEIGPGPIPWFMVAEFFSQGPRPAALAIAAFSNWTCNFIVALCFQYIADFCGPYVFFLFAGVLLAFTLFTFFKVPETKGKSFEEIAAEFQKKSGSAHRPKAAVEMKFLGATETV
# Protocol: In vitro assays for measuring glucose uptake were designed to assess whether EPM-301 and EPM-302 compounds are capable of inhibiting or increasing glucose uptake via glucose transporters (GLUTs).
# Transfected HEK293t cells, which express the glucose transporter 2 (GLUT2), were cultured in a 96 well plate and maintained at 37° C. in 5% CO2 in DMEM medium supplemented with 10% FCS, 2 mM 1-glutamine, 1 mM sodium pyruvate, 100 U/mL penicillin, and […] streptomycin for 24 h. The medium was then washed with a choline chloride Na^+-free buffer (CCB), in which only GLUTs (and not the sodium/glucose transporters [SGLTs]) were active. The wells were then added with CCB/CCB+2-NBDG (a fluorescent derivative of glucose). Compounds were tested in a range of concentrations for their ability to inhibit/increase 2-NBDG uptake into the cells. After 1.5 h incubation, cells were washed with CCB and incubated with 1 μg/μL of Hoechst for 15 mins at 37° C. and protected from light. Fluorescence was measured by the Cytation-3 plate reader at ex:485 nm/em:528 nm and ex:350 nm/em:461 nm for 2-NBDG Hoechst, respectively. Results of the 2-NBDG levels were normalized to Hoechst levels of each well, and presented as a change in the uptake of 2-NBDG in comparison with Vehicle-treated group.
# Vehicle solution (choline chloride buffer), EPM-301 (50-0.1 μM), and EPM-302 (50-0.1 μM) were used for the experiments.
# Values are expressed as mean±SEM. Unpaired two-tailed student's t-test was used to determine the differences between the groups. Significance was set at p<0.05. *versus vehicle; #versus control.
compound,measurement,setting,value
"C=C(C)[C@@H]1CCC(C)=CC1c1c(O)cc(CCCCC)c(C(=O)OC)c1O (some centres unmarked) [EPM-301, cannabidiolic acid methyl ester]",Rt limb weight bearing,"[1]; following injections, EPM-301 i.a. once plus i.p. 6 days, HA and CS single i.a. injection",99.1%
same,weight bearing,"[1]; immediately prior to injection, two weeks following model induction (baseline before treatment)",56.6%
same,"weight gain, short-term study",[2],halting
same,concentration at which the effect on glucose transport was observed,[3],50 µM
same,glucose uptake (2-NBDG) in HEK293 cells,"[3]; 1.5 h incubation, versus vehicle (FIG. 36A, 36B)",significantly reduce
